target: T1, human HAQ STING isoform (hSTING HAQ) (Homo sapiens, UniProt Q86WV6, G230A/H232R/R293Q/R71H); assay: IFN-β mRNA level in THP1 cells (qPCR, STING agonist cellular activity); assay type: cell-based; conditions: compound at 3.6 μM, 2 hrs, IFNβ expression normalized against GAPDH by the 2^-ΔΔCT method, DMSO = 1.0
T1 construct: THP1 cells express the naturally occurring human HAQ STING isoform (hSTING HAQ); host or cells: THP1
Method: Cellular activity of STING agonists was determined by mRNA levels of IFN-β in THP1 (Otwo Biotech HTX1621) cell line. THP1 cells express the naturally occurring human HAQ STING isoform (hSTING HAQ), which responses to the activation of STING agonists.
THP1 cells were seeded into Falcon 12-well cell Culture Plate (Corning #353043) at 9×10^5 cells per well, in 1 ml complete culture medium (RPMI-1640, GIBCO #C1187500BT) containing 10% heat inactivated FBS (GIBCO #10099141C), 1% Pen-Strep (HyClone SV30010) and incubated at 37° ΔC, 5% CO2 overnight. On day 2, compound (final concentration at 3.6 μM) or DMSO (0.1%, Sigma Aldrich #8418) was added to THP1 cells and further incubated for 2 hrs min at 37° ΔC, 5% CO2. Cells were then collected for RNA extraction.
Total RNA was extracted with TRIzol reagent (Invitrogen #15596026) and […] was used to synthesize first-strand cDNA with Maxima First Strand cDNA Synthesis Kit (TAKARA #RR036A). Quantitative PCR was performed with Maxima SYBR Green qPCR Master Mix (ABI #4367659, USA). The primer sequences used were as follows: GAPDH (5′-[…]-3′, 5′-[…]-3′). INFP3 (5′-[…]-3′,5′-[…]-3′) Real-time PCR was performed on QuantStudio™ 5 Real-Time PCR System (Thermo Fisher). Relative expression levels of IFNβ gene were normalized against the level of GAPDH expression by the 2^−ΔΔCT method. Each PCR reaction was performed in triplicates.

T1 sequence (Q86WV6 whole entry R71H/G230A/H232R/R293Q, canonical isoform): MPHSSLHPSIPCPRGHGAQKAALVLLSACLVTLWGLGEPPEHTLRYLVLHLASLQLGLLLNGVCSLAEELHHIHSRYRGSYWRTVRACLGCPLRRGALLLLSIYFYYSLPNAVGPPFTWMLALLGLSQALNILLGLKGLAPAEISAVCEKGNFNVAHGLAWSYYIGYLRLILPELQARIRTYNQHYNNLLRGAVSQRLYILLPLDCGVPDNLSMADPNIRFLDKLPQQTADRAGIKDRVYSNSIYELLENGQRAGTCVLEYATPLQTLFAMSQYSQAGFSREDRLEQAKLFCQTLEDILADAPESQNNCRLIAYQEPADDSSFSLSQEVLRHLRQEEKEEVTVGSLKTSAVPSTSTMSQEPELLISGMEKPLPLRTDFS

Relative mRNA INFβ/GAPDH THP 1	Compound
1530.0	COc1cc(CN(Cc2cn3c4c(c(N5CCCCC5)c(F)cc4c2=O)OCC3C)[C@H]2CCCN(c3ccc(N)nc3)C2)ccn1 (stereo partly drawn) [Compound 28, 6-((((S)-1-(6-aminopyridin-3-yl)piperidin-3-yl)((2-methoxypyridin-4-yl)methyl)amino)methyl)-9-fluoro-3-methyl-10-(piperidin-1-yl)-2H-[1,4]oxazino[2,3,4-ij]quinolin-7(3H)-one]
986.1	COc1cc(CN(Cc2cn3c4c(c(N5CC6(COC6)C5)c(F)cc4c2=O)OCC3C)[C@H]2CCCN(c3ccc(N)nc3)C2)ccn1 (stereo partly drawn) [Compound 30, 6-((((S)-1-(6-aminopyridin-3-yl)piperidin-3-yl)((2-methoxypyridin-4-yl)methyl)amino)methyl)-9-fluoro-3-methyl-10-(2-oxa-6-azaspiro[3.3]heptan-6-yl)-2H-[1,4]oxazino[2,3,4-ij]quinolin-7(3H)-one]
1162.4	COc1cc(CN(Cc2cn3c4c(c(N5CCC(O)CC5)c(F)cc4c2=O)OCC3C)[C@H]2CCCN(c3ccc(N)nc3)C2)ccn1 (stereo partly drawn) [Compound 31, 6-((((S)-1-(6-aminopyridin-3-yl)piperidin-3-yl)((2-methoxypyridin-4-yl)methyl)amino)methyl)-9-fluoro-10-(4-hydroxypiperidin-1-yl)-3-methyl-2H-[1,4]oxazino[2,3,4-ij]quinolin-7(3H)-one]
6829.2	COc1cc(CN(Cc2cn3c4c(c(N5CCCCC5C)c(F)cc4c2=O)OCC3C)[C@H]2CCCN(c3ccc(N)nc3)C2)ccn1 (stereo partly drawn) [Compound 37, 6-((((S)-1-(6-aminopyridin-3-yl)piperidin-3-yl)((2-methoxypyridin-4-yl)methyl)amino)methyl)-9-fluoro-3-methyl-10-(2-methylpiperidin-1-yl)-2H-[1,4]oxazino[2,3,4-ij]quinolin-7(3H)-one]
352.8	COc1cc(CN(Cc2cn3c4c(c(N5CCNC(C)C5)c(F)cc4c2=O)OCC3C)[C@H]2CCCN(c3ccc(N)nc3)C2)ccn1 (stereo partly drawn) [Compound 40, 6-((((S)-1-(6-aminopyridin-3-yl)piperidin-3-yl)((2-methoxypyridin-4-yl)methyl)amino)methyl)-9-fluoro-3-methyl-10-(3-methylpiperazin-1-yl)-2H-[1,4]oxazino[2,3,4-ij]quinolin-7(3H)-one]
12.1	CNC1CCCN(c2c(F)cc3c(=O)c(CN(Cc4ccnc(OC)c4)[C@H]4CCCN(c5ccc(N)nc5)C4)cn4c3c2OCC4C)C1.Cl (stereo partly drawn) [Compound 42, 6-((((S)-1-(6-aminopyridin-3-yl)piperidin-3-yl)((2-methoxypyridin-4-yl)methyl)amino)methyl)-9-fluoro-3-methyl-10-(3-(methylamino)piperidin-1-yl)-2H-[1,4]oxazino[2,3,4-ij]quinolin-7(3H)-one Hydrochloride]
1.2	COc1cc(CN(Cc2cn3c4c(c(N(C)C5CCCNC5)c(F)cc4c2=O)OCC3C)[C@H]2CCCN(c3ccc(N)nc3)C2)ccn1.Cl (stereo partly drawn) [Compound 43, 6-((((S)-1-(6-aminopyridin-3-yl)piperidin-3-yl)((2-methoxypyridin-4-yl)methyl)amino)methyl)-9-fluoro-3-methyl-10-(methyl(piperidin-3-yl)amino)-2H-[1,4]oxazino[2,3,4-ij]quinolin-7(3H)-one Hydrochloride]

More lines, now with the values behind:

Compound	Relative mRNA INFβ/GAPDH THP 1
COc1cc(CN(Cc2cn3c4c(c(N5CCN(C)C(C)C5)c(F)cc4c2=O)OCC3C)[C@H]2CCCN(c3ccc(N)nc3)C2)ccn1 (stereo partly drawn) [Compound 32, 6-((((S)-1-(6-aminopyridin-3-yl)piperidin-3-yl)((2-methoxypyridin-4-yl)methyl)amino)methyl)-10-(3,4-dimethylpiperazin-1-yl)-9-fluoro-3-methyl-2H-[1,4]oxazino[2,3,4-ij]quinolin-7(3H)-one]	814.9
COc1cc(CN(Cc2cn3c4c(c(N5CCc6ccccc6C5)c(F)cc4c2=O)OCC3C)[C@H]2CCCN(c3ccc(N)nc3)C2)ccn1 (stereo partly drawn) [Compound 33, 6-((((S)-1-(6-aminopyridin-3-yl)piperidin-3-yl)((2-methoxypyridin-4-yl)methyl)amino)methyl)-10-(3,4-dihydroisoquinolin-2(1H)-yl)-9-fluoro-3-methyl-2H-[1,4]oxazino[2,3,4-ij]quinolin-7(3H)-one]	849.2
COc1cc(CN(Cc2cn3c4c(c(N5CCC(N)C5)c(F)cc4c2=O)OCC3C)[C@H]2CCCN(c3ccc(N)nc3)C2)ccn1.Cl (stereo partly drawn) [Compound 34, 6-((((S)-1-(6-aminopyridin-3-yl)piperidin-3-yl)((2-methoxypyridin-4-yl)methyl)amino)methyl)-10-(3-aminopyrrolidin-1-yl)-9-fluoro-3-methyl-2H-[1,4]oxazino[2,3,4-ij]quinolin-7(3H)-one Hydrochloride]	54.8
COc1cc(CN(Cc2cn3c4c(c(N5C[C@@H](C)N[C@@H](C)C5)c(F)cc4c2=O)OCC3C)[C@H]2CCCN(c3ccc(N)nc3)C2)ccn1 (stereo partly drawn) [Compound 35, 6-((((S)-1-(6-aminopyridin-3-yl)piperidin-3-yl)((2-methoxypyridin-4-yl)methyl)amino)methyl)-10-((3S,5R)-3,5-dimethylpiperazin-1-yl)-9-fluoro-3-methyl-2H-[1,4]oxazino[2,3,4-ij]quinolin-7(3H)-one]	3791.8
COc1cc(CN(Cc2cn3c4c(c(N5CCC(N6CCOCC6)CC5)c(F)cc4c2=O)OCC3C)[C@H]2CCCN(c3ccc(N)nc3)C2)ccn1 (stereo partly drawn) [Compound 36, 6-((((S)-1-(6-aminopyridin-3-yl)piperidin-3-yl)((2-methoxypyridin-4-yl)methyl)amino)methyl)-9-fluoro-3-methyl-10-(4-morpholinopiperidin-1-yl)-2H-[1,4]oxazino[2,3,4-ij]quinolin-7(3H)-one]	9395.6
COc1cc(CN(Cc2cn3c4c(c(N5CC(O)C5)c(F)cc4c2=O)OCC3C)[C@H]2CCCN(c3ccc(N)nc3)C2)ccn1 (stereo partly drawn) [Compound 38, 6-((((S)-1-(6-aminopyridin-3-yl)piperidin-3-yl)((2-methoxypyridin-4-yl)methyl)amino)methyl)-9-fluoro-10-(3-hydroxyazetidin-1-yl)-3-methyl-2H-[1,4]oxazino[2,3,4-ij]quinolin-7(3H)-one]	672.0
COc1cc(CN(Cc2cn3c4c(c(N5CCNCC5)c(F)cc4c2=O)OCC3C)[C@H]2CCCN(c3ccc(N)nc3)C2)ccn1 (stereo partly drawn) [Compound 39, 6-((((S)-1-(6-aminopyridin-3-yl)piperidin-3-yl)((2-methoxypyridin-4-yl)methyl)amino)methyl)-9-fluoro-3-methyl-10-(piperazin-1-yl)-2H-[1,4]oxazino[2,3,4-ij]quinolin-7(3H)-one]	81.3
COc1cc(CN(Cc2cn3c4c(c(N5CCNCC5C)c(F)cc4c2=O)OCC3C)[C@H]2CCCN(c3ccc(N)nc3)C2)ccn1 (stereo partly drawn) [Compound 41, 6-((((S)-1-(6-aminopyridin-3-yl)piperidin-3-yl)((2-methoxypyridin-4-yl)methyl)amino)methyl)-9-fluoro-3-methyl-10-(2-methylpiperazin-1-yl)-2H-[1,4]oxazino[2,3,4-ij]quinolin-7(3H)-one]	1.2
COc1cc(CN(Cc2cn3c4c(c(N5CCC6(CC5)CC(O)CO6)c(F)cc4c2=O)OCC3C)[C@H]2CCCN(c3ccc(N)nc3)C2)ccn1 (stereo partly drawn) [Compound 44, 6-((((S)-1-(6-aminopyridin-3-yl)piperidin-3-yl)((2-methoxypyridin-4-yl)methyl)amino)methyl)-9-fluoro-10-(3-hydroxy-1-oxa-8-azaspiro[4.5]decan-8-yl)-3-methyl-2H-[1,4]oxazino[2,3,4-ij]quinolin-7(3H)-one]	642.4
COc1cc(CN(Cc2cn3c4c(c(N5CC6(CCN(C)CC6)C5)c(F)cc4c2=O)OCC3C)[C@H]2CCCN(c3ccc(N)nc3)C2)ccn1 (stereo partly drawn) [Compound 45, 6-((((S)-1-(6-aminopyridin-3-yl)piperidin-3-yl)((2-methoxypyridin-4-yl)methyl)amino)methyl)-9-fluoro-3-methyl-10-(7-methyl-2,7-diazaspiro[3.5]nonan-2-yl)-2H-[1,4]oxazino[2,3,4-ij]quinolin-7(3H)-one]	595.1
COc1cc(CN(Cc2cn3c4c(c(N5CC6CC(F)(F)CC6C5)c(F)cc4c2=O)OCC3C)[C@H]2CCCN(c3ccc(N)nc3)C2)ccn1 (stereo partly drawn) [Compound 46, 6-((((S)-1-(6-aminopyridin-3-yl)piperidin-3-yl)((2-methoxypyridin-4-yl)methyl)amino)methyl)-10-(5,5-difluorohexahydrocyclopenta[c]pyrrol-2(1H)-yl)-9-fluoro-3-methyl-2H-[1,4]oxazino[2,3,4-ij]quinolin-7(3H)-one]	691.4

Reference: patent US20250171461A1, “STIMULATOR OF INTERFERON GENES (STING) MODULATORS, AND COMPOSITIONS AND METHODS THEREOF” (Geode Therapeutics Inc., priority 2022, published 2025)
